{"source": "patent US20200055839A1", "about": "(priority 2017, published 2020)"}
{"system": "NL-RLuc virus", "assay": "Inhibition of HIV replication (NL-RLuc virus, luciferase readout in MT-2 cells)", "assay_type": "cell-based", "conditions": "Human immunodeficiency virus 1, MT2, 120 h, MT-2 cells infected with NL-RLuc virus, 5 days of incubation, 10% FBS, at least 2 experiments", "how_it_was_run": "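EC50 derived via median effect equation from at least 2 experiments, using luciferase expression as virus-growth readout. Replication-competent NL-RLuc reporter virus (nef partly replaced by Renilla luciferase) infected MT-2 cells with serial compound dilutions; 5-day incubation in RPMI 1640 plus 10% FBS.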", "units": {"EC50": "nM"}}
{"smiles": "Cc1ncc(-c2ccc([C@@H](O)CC(C)C)nc2)c(N2CCC(C)(C)CC2)c1[C@H](OC(C)(C)C)C(=O)O", "note": "[Example 432, (S)-2-tert-Butoxy-2-(4-(4,4-dimethylpiperidin-1-yl)-6′-((S)-1-hydroxy-3-methylbutyl)-6-methyl-3, 3′-bipyridin-5-yl)acetic acid]", "EC50": 32}
{"smiles": "Cc1ncc(-c2cccc(F)c2)c(N2CCC(C)(C)CC2)c1[C@H](OC(C)(C)C)C(=O)O", "note": "[Example 133, (2S)-2-(tert-Butoxy)-2-[4-(4,4-dimethylpiperidin-1-yl)-5-(3-fluorophenyl)-2-methylpyridin-3-yl]acetic acid]", "EC50": 4}
{"smiles": "Cc1nc(C(=O)N2CCC(C)(C)CC2)c(-c2ccc(OCCc3ccc(F)cc3)cc2)c(N2CCC(C)(C)CC2)c1[C@H](OC(C)(C)C)C(=O)O", "note": "[Example 11, (S)-2-(tert-Butoxy)-2-(4-(4,4-dimethylpiperidin-1-yl)-6-(4,4-dimethylpiperidine-1-carbonyl)-5-(4-(4-fluorophenethoxy)phenyl)-2-methylpyridin-3-yl)acetic acid]", "EC50": 4}
{"smiles": "Cc1ncc(-c2ccc(OCCc3ccc(F)cc3Cl)cn2)c(N2CCC(C)(C)CC2)c1[C@H](OC(C)(C)C)C(=O)O", "note": "[Example 310, (2S)-2-(tert-butoxy)-2-{5-[2-(2-chloro-4-fluorophenyl)ethoxy]-4′-(4,4-dimethylpiperidin-1-yl)-6′-methyl-[2,3′-bipyridine]-5′-yl}acetic acid]", "EC50": 0.5}
{"smiles": "Cc1nc(CN2CCC3(CCC3)CC2)c(-c2ccc(F)cc2)c(N2CCC(C)(C)CC2)c1[C@H](OC(C)(C)C)C(=O)O", "note": "[Example 191, (2S)-2-[6-({7-Azaspiro[3.5]nonan-7-yl}methyl)-4-(4,4-dimethylpiperidin-1-yl)-5-(4-fluorophenyl)-2-methylpyridin-3-yl]-2-(tert-butoxy)acetic acid]", "EC50": 2}
{"smiles": "Cc1ncc(-c2cnc(OCC(C)C)c(F)c2)c(N2CCC(C)(C)CC2)c1[C@H](OC(C)(C)C)C(=O)O", "note": "[Example 381, (2S)-2-(tert-butoxy)-2-[4-(4,4-dimethylpiperidin-1-yl)-5′-fluoro-6-methyl-6′-(2-methylpropoxy)-[3,3′-bipyridine]-5-yl]acetic acid]", "EC50": 3}
{"smiles": "Cc1nc(Nc2ncccc2F)c(-c2ccc(OCCc3ccc(F)cc3)cc2)c(N2CCC(C)(C)CC2)c1[C@H](OC(C)(C)C)C(=O)O", "note": "[Example 82, (S)-2-(tert-Butoxy)-2-(4-(4,4-dimethylpiperidin-1-yl)-5-(4-(4-fluorophenethoxy)phenyl)-6-((3-fluoropyridin-2-yl)amino)-2-methylpyridin-3-yl)acetic acid]", "EC50": 2}
{"smiles": "Cc1ncc(-c2cccc(OCCc3ccc(F)cc3)n2)c(N2CCC(C)(C)CC2)c1[C@H](OC(C)(C)C)C(=O)O", "note": "[Example 280, (S)-2-(tert-Butoxy)-2-(4′-(4,4-dimethylpiperidin-1-yl)-6-(4-fluorophenethoxy)-6′-methyl-[2, 3′-bipyridin]-5′-yl)acetic acid]", "EC50": 20}
{"smiles": "Cc1ncc(-c2ccc(OCCc3ccc(F)cc3)c(C#N)c2)c(N2CCC(C)(C)CC2)c1[C@H](OC(C)(C)C)C(=O)O", "note": "[Example 256, (S)-2-(tert-Butoxy)-2-(5-(3-cyano-4-(4-fluorophenethoxy)phenyl)-4-(4,4-dimethylpiperidin-1-yl)-2-methylpyridin-3-yl)acetic acid]", "EC50": 0.8}
{"smiles": "CC1(C)CCN(c2c(-c3ccc(OCCc4ccc(F)cc4)c(F)c3)cnc(C#N)c2[C@H](OC(C)(C)C)C(=O)O)CC1", "note": "[Example 217, (S)-2-(tert-Butoxy)-2-(2-cyano-4-(4,4-dimethylpiperidin-1-yl)-5-(3-fluoro-4-(4-fluorophenethoxy)phenyl)pyridin-3-yl)acetic acid]", "EC50": 10}
{"smiles": "Cc1ncc(-c2cccnc2)c(N2CCC(C)(C)CC2)c1[C@H](OC(C)(C)C)C(=O)O", "note": "[Example 155, (2S)-2-(tert-Butoxy)-2-[4-(4,4-dimethylpiperidin-1-yl)-6-methyl-[3, 3′-bipyridine]-5-yl]acetic acid]", "EC50": 11}
{"smiles": "CCC(C)(C)O[C@H](C(=O)O)c1c(C)ncc(-c2ccc(OCCc3ccc(F)cc3)cn2)c1N1CCC(C)(C)CC1", "note": "[Example 246, (S)-2-(4′-(4,4-Dimethylpiperidin-1-yl)-5-(4-fluorophenethoxy)-6′-methyl-[2, 3′-bipyridin]-5′-yl)-2-(tert-pentyloxy)acetic acid]", "EC50": 0.4}
{"smiles": "CCCCCOc1ncc(-c2cnc(C)c([C@H](OC(C)(C)C)C(=O)O)c2N2CCC(C)(C)CC2)cc1F", "note": "[Example 407, (2S)-2-(tert-butoxy)-2-[4-(4,4-dimethylpiperidin-1-yl)-5′-fluoro-6-methyl-6′-(pentyloxy)-[3,3′-bipyridine]-5-yl]acetic acid]", "EC50": 4}
{"smiles": "Cc1ncc(-c2ccc(NCC(C)C)nc2)c(N2CCC(C)(C)CC2)c1[C@H](OC(C)(C)C)C(=O)O", "note": "[Example 436, (S)-2-tert-Butoxy-2-(4-(4,4-dimethylpiperidin-1-yl)-6′-(isobutylamino)-6-methyl-3, 3′-bipyridin-5-yl)acetic acid]", "EC50": 7}
{"smiles": "Cc1ncc(-c2cnc(OCCC(C)(C)C)c(F)c2)c(N2CCC(C)(C)CC2)c1[C@H](OC(C)(C)C)C(=O)O", "note": "[Example 376, (2S)-2-(tert-butoxy)-2-[6′-(3,3-dimethylbutoxy)-4-(4,4-dimethylpiperidin-1-yl)-5′-fluoro-6-methyl-[3,3′-bipyridine]-5-yl]acetic acid]", "EC50": 5}
{"smiles": "Cc1nc(NCCCN2CCOCC2)c(-c2ccc(OCCc3ccc(F)cc3)cc2)c(N2CCC(C)(C)CC2)c1[C@H](OC(C)(C)C)C(=O)O", "note": "[Example 34, (S)-2-(tert-Butoxy)-2-(4-(4,4-dimethylpiperidin-1-yl)-5-(4-(4-fluorophenethoxy)phenyl)-2-methyl-6-((3-morpholinopropyl)amino)pyridin-3-yl)acetic acid]", "EC50": 0.7}
{"smiles": "CCOc1c(C(F)(F)F)ccc(-c2cnc(C)c([C@H](OC(C)(C)C)C(=O)O)c2N2CCC(C)(C)CC2)c1F", "note": "[Example 173, (2S)-2-(tert-butoxy)-2-[4-(4,4-dimethylpiperidin-1-yl)-5-[3-ethoxy-2-fluoro-4-(trifluoromethyl)phenyl]-2-methylpyridin-3-yl]acetic acid]", "EC50": 21}
{"smiles": "Cc1ncc(-c2ccc(OCCc3c(F)cccc3Cl)cn2)c(N2CCC(C)(C)CC2)c1[C@H](OC(C)(C)C)C(=O)O", "note": "[Example 305, (2S)-2-(tert-butoxy)-2-{5-[2-(2-chloro-6-fluorophenyl)ethoxy]-4′-(4,4-dimethylpiperidin-1-yl)-6′-methyl-[2,3′-bipyridine]-5′-yl}acetic acid]", "EC50": 1}
{"smiles": "Cc1nc(C(=O)NS(=O)(=O)C2CC2)c(-c2ccc(OCCc3ccc(F)cc3)cc2)c(N2CCC(C)(C)CC2)c1[C@H](OC(C)(C)C)C(=O)O", "note": "[Example 9, (S)-2-(tert-Butoxy)-2-(6-((cyclopropylsulfonyl)carbamoyl)-4-(4,4-dimethylpiperidin-1-yl)-5-(4-(4-fluorophenethoxy)phenyl)-2-methylpyridin-3-yl)acetic acid]", "EC50": 380}
{"smiles": "Cc1ncccc1Nc1nc(C)c([C@H](OC(C)(C)C)C(=O)O)c(N2CCC(C)(C)CC2)c1-c1ccc(OCCc2ccc(F)cc2)cc1", "note": "[Example 94, (S)-2-(tert-Butoxy)-2-(4-(4,4-dimethylpiperidin-1-yl)-5-(4-(4-fluorophenethoxy)phenyl)-2-methyl-6-((2-methylpyridin-3-yl)amino)pyridin-3-yl)acetic acid]", "EC50": 6}
{"smiles": "CC1(C)CCN(c2c(-c3ccc(OCCc4ccc(F)cc4)cc3)c(CO)nc(Cl)c2[C@H](OC(C)(C)C)C(=O)O)CC1", "note": "[Example 212, (S)-2-(tert-Butoxy)-2-(2-chloro-4-(4,4-dimethylpiperidin-1-yl)-5-(4-(4-fluorophenethoxy)phenyl)-6-(hydroxymethyl)pyridin-3-yl)acetic acid]", "EC50": 0.3}
{"smiles": "Cc1ncc(-c2ccc(OCCc3ccccc3)cc2)c(N2CCC(C)(C)CC2)c1[C@H](OC(C)(C)C)C(=O)O", "note": "[Example 265, (S)-2-(tert-Butoxy)-2-(4-(4,4-dimethylpiperidin-1-yl)-2-methyl-5-(4-phenethoxyphenyl)pyridin-3-yl)acetic acid]", "EC50": 1}
{"smiles": "Cc1ncc(-c2ccc(OCCc3ccc(F)c(Cl)c3)cn2)c(N2CCC(C)(C)CC2)c1[C@H](OC(C)(C)C)C(=O)O", "note": "[Example 307, (2S)-2-(tert-butoxy)-2-{5-[2-(3-chloro-4-fluorophenyl)ethoxy]-4′-(4,4-dimethylpiperidin-1-yl)-6′-methyl-[2,3′-bipyridine]-5′-yl}acetic acid]", "EC50": 1}
{"smiles": "CC1(C)CCN(c2c(-c3ccc(OCCc4ccc(F)cc4)cc3)cnc(CF)c2[C@H](OC(C)(C)C)C(=O)O)CC1", "note": "[Example 7, (S)-2-(tert-Butoxy)-2-(4-(4,4-dimethylpiperidin-1-yl)-2-(fluoromethyl)-5-(4-(4-fluorophenethoxy)phenyl)pyridin-3-yl)acetic acid]", "EC50": 2}
{"smiles": "COc1ccc(-c2cnc(C)c([C@H](OC(C)(C)C)C(=O)O)c2N2CCC(C)(C)CC2)nc1", "note": "[Example 229, (S)-2-(tert-Butoxy)-2-(4′-(4,4-dimethylpiperidin-1-yl)-5-methoxy-6′-methyl-[2, 3′-bipyridin]-5′-yl)acetic acid]", "EC50": 13}
{"smiles": "Cc1nc(NCCN2CCCCC2)c(-c2ccc(OCCc3ccc(F)cc3)cc2)c(N2CCC(C)(C)CC2)c1[C@H](OC(C)(C)C)C(=O)O", "note": "[Example 29, (S)-2-(tert-Butoxy)-2-(4-(4,4-dimethylpiperidin-1-yl)-5-(4-(4-fluorophenethoxy)phenyl)-2-methyl-6-((2-(piperidin-1-yl)ethyl)amino)pyridin-3-yl)acetic acid]", "EC50": 0.2}
{"smiles": "COc1nc(C)c(-c2ccc(OCCc3ccc(F)cc3)cc2)c(N2CCC(C)(C)CC2)c1[C@H](OC(C)(C)C)C(=O)O", "note": "[Example 3, (S)-2-(tert-Butoxy)-2-(4-(4,4-dimethylpiperidin-1-yl)-5-(4-(4-fluorophenethoxy)phenyl)-2-methoxy-6-methylpyridin-3-yl)acetic acid]", "EC50": 8}
